Experiment [1] deals with T1, Xanthine dehydrogenase/oxidase (Bos taurus, UniProt P80457). Nature of the experiment: Inhibition of cow milk xanthine oxidase.
For experiment [2], the target named is T1, Xanthine dehydrogenase/oxidase. The experiment is described as follows: Inhibition of cow milk xanthine oxidase by Lineweaver-Burke plot analysis. Particulars: read-out: Activity.

T1 sequence (P80457 whole entry): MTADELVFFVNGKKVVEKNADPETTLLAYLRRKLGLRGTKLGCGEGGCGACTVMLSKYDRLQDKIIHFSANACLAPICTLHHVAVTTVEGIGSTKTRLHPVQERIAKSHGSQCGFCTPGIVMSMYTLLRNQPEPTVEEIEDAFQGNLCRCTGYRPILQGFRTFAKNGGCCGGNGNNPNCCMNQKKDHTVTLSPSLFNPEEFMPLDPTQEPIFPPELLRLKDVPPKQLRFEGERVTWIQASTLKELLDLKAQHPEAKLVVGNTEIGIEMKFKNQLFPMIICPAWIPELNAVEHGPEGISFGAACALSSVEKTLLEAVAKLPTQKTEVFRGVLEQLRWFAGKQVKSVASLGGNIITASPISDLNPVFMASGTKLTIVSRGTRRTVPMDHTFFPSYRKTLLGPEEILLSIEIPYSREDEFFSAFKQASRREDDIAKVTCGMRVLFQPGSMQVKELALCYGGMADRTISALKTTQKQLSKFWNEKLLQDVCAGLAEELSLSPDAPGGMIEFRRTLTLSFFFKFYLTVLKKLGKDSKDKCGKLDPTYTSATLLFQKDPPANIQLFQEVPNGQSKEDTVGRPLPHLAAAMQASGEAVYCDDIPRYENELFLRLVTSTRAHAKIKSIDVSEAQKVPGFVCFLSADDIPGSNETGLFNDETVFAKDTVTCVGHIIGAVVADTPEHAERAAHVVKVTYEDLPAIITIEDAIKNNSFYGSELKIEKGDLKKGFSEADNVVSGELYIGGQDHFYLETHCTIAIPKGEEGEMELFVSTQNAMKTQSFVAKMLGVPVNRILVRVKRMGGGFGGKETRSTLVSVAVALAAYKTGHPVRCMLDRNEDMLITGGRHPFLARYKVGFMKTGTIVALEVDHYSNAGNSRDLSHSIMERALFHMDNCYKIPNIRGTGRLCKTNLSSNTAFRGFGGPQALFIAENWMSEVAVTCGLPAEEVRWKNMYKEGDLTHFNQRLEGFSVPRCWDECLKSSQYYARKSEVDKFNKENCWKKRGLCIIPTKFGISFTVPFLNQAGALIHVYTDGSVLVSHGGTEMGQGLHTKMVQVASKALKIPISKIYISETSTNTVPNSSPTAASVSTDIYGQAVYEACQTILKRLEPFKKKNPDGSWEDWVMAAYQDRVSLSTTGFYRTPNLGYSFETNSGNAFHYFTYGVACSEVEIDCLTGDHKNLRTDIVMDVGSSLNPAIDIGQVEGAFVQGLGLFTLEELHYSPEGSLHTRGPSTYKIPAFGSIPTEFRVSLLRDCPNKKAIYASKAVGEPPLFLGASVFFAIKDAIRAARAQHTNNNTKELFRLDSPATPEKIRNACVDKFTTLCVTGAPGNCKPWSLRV

The IC50 is the concentration that inhibits the measured activity by half. A low value points to inhibition by little substance. With `O=C(OC[C@H]1O[C@@H](OC(=O)c2cc(O)c(O)c(O)c2)[C@H](OC(=O)c2cc(O)c(O)c(O)c2)[C@@H](OC(=O)c2cc(O)c(O)c(O)c2)[C@@H]1OC(=O)c1cc(O)c(O)c(O)c1)c1cc(O)c(O)c(O)c1` [PENTAGALLOYL GLUCOSE], the IC50 in experiment [1] stood at 3200 nM. In addition, the Ki in experiment [2] was 2120 nM.

(Values after ChEMBL document CHEMBL1147277, “Pentagalloylglucose, a xanthine oxidase inhibitor from a Paraguayan crude drug, "Molle-i" (Schinus terebinthifolius)” (J Nat Prod, 1989).)
